# Data reported in PubChem BioAssay (NCI).
#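 Exposure lasted 48 hours, with cells grown in 96-well plates and compounds tested at five concentrations. The concentration for 50% growth inhibition is given as GI50. At the TGI there is no net growth.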
# Key:
# Experiment in all cases: NCI anticancer screen, dose series, 48 h
# [1] = system: HCT-116 colon
# [2] = system: RXF 393 renal
# [3] = system: UACC-62 melanoma
# [4] = system: U251 CNS
# [5] = system: SF-295 CNS
# [6] = system: OVCAR-8 ovarian
# [7] = system: HOP-62 NSCLC
# [8] = system: SK-MEL-5 melanoma
# [9] = system: CAKI-1 renal
# [10] = system: NCI-H522 lung
# [11] = system: PC-3 prostate
# [12] = system: MOLT-4 leukemia
# [13] = system: DU-145 prostate
# [14] = system: SK-OV-3 ovarian
# [15] = system: HOP-92 NSCLC
# [16] = system: UACC-257 melanoma
# [17] = system: EKVX NSCLC
# [18] = system: A498 renal
# [19] = system: CCRF-CEM leukemia
# [20] = system: OVCAR-3 ovarian
# [21] = system: SNB-19 CNS
# [22] = system: SN12C renal
# [23] = system: HCC-2998 colon
# [24] = system: A549 NSCLC
# [25] = system: SF-268 CNS
# [26] = system: TK-10 renal
# [27] = system: HS 578T breast
# [28] = system: SNB-75 CNS
# [29] = system: SK-MEL-28 melanoma
# [30] = system: OVCAR-5 ovarian
# [31] = system: K-562 leukemia
# [32] = system: SF-539 CNS
# [33] = system: MDA-MB-231 breast
# [34] = system: M14 melanoma
# [35] = system: ACHN renal
# [36] = system: BT-549 breast
# [37] = system: UO-31 renal
# [38] = system: HT29 colon
# [39] = system: LOX IMVI melanoma
# [40] = system: NCI/ADR-RES ovarian
# [41] = system: SK-MEL-2 melanoma
# [42] = system: 786-0 renal
# [43] = system: NCI-H23 lung
# [44] = system: RPMI-8226 leukemia
# [45] = system: MALME-3M melanoma
smiles,measurement,setting,value
CCCCN(CCCC)c1cc(C(=O)CCCCCN)c2ccccc2n1,GI50,[1],1.78 µM
same,TGI,[1],3.16 µM
same,GI50,[2],1.53 µM
same,TGI,[2],2.89 µM
same,GI50,[3],1.66 µM
same,TGI,[3],3.07 µM
same,GI50,[4],1.77 µM
same,TGI,[4],3.23 µM
same,GI50,[5],1.86 µM
same,TGI,[5],3.85 µM
same,GI50,[6],2.03 µM
same,TGI,[6],4.61 µM
same,GI50,[7],1.76 µM
same,TGI,[7],3.53 µM
same,GI50,[8],1.58 µM
same,TGI,[8],2.92 µM
same,GI50,[9],1.86 µM
same,TGI,[9],4.38 µM
same,GI50,[10],1.91 µM
same,TGI,[10],3.52 µM
same,GI50,[11],2.56 µM
same,TGI,[11],6.07 µM
same,GI50,[12],2.54 µM
same,TGI,[12],5.47 µM
same,GI50,[13],1.89 µM
same,TGI,[13],3.41 µM
same,GI50,[14],1.76 µM
same,TGI,[14],3.16 µM
same,GI50,[15],2.51 µM
same,TGI,[15],6.32 µM
same,GI50,[16],1.76 µM
same,TGI,[16],3.5 µM
same,GI50,[17],4.99 µM
same,TGI,[17],23.1 µM
same,GI50,[18],2.85 µM
same,TGI,[18],19.2 µM
same,GI50,[19],3.2 µM
same,TGI,[19],7.32 µM
same,GI50,[20],2.02 µM
same,TGI,[20],3.79 µM
same,GI50,[21],1.65 µM
same,TGI,[21],3.12 µM
same,GI50,[22],1.63 µM
same,TGI,[22],3.07 µM
same,GI50,[23],1.76 µM
same,TGI,[23],3.21 µM
same,GI50,[24],1.78 µM
same,TGI,[24],3.38 µM
same,GI50,[25],3.38 µM
same,TGI,[25],12.7 µM
same,GI50,[26],1.94 µM
same,TGI,[26],3.5 µM
same,GI50,[27],2.13 µM
same,TGI,[27],6.05 µM
same,GI50,[28],1.71 µM
same,TGI,[28],3.21 µM
same,GI50,[29],1.91 µM
same,TGI,[29],3.37 µM
same,GI50,[30],1.85 µM
same,TGI,[30],3.65 µM
same,GI50,[31],2.47 µM
same,TGI,[31],5 µM
same,GI50,[32],1.95 µM
same,TGI,[32],3.41 µM
same,GI50,[33],1.62 µM
same,TGI,[33],3.09 µM
same,GI50,[34],1.83 µM
same,TGI,[34],3.29 µM
same,GI50,[35],1.76 µM
same,TGI,[35],3.14 µM
same,GI50,[36],8.57 µM
same,TGI,[36],23.4 µM
same,GI50,[37],1.85 µM
same,TGI,[37],3.68 µM
same,GI50,[38],2 µM
same,TGI,[38],3.57 µM
same,GI50,[39],1.69 µM
same,TGI,[39],3.13 µM
same,GI50,[40],1.78 µM
same,TGI,[40],3.61 µM
same,GI50,[41],2.56 µM
same,TGI,[41],4.45 µM
same,GI50,[42],1.83 µM
same,TGI,[42],3.27 µM
same,GI50,[43],1.89 µM
same,TGI,[43],3.8 µM
same,GI50,[44],2.95 µM
same,TGI,[44],6.53 µM
same,GI50,[45],2.16 µM
same,TGI,[45],4.16 µM
